ChEMBL document CHEMBL1201862, “PubChem BioAssay data set” (2004)
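Where inhibition never reached the appropriate level, the endpoint shown equals the highest concentration tested. Otherwise, values were interpolated linearly from a five-concentration, 48-hour dose response in 96-well plates. Abbreviation: GI50, concentration required for 50% inhibition of growth.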 The source made the active and inactive calls. Cut-off read from the data, not from the text of the source: active = GI50 up to about 1.1 µM and inactive = higher.

Columns and labels:
Experiment in all cases: inhibition of tumour cell growth, NCI panel, 48 h
786-0 = test system: 786-0
A498 = test system: A498
A549 = test system: A549
ACHN = test system: ACHN
BT-549 = test system: BT-549
CAKI-1 = test system: CAKI-1
CCRF-CEM = test system: CCRF-CEM
COLO 205 = test system: COLO 205
DU-145 = test system: DU-145
EKVX = test system: EKVX
HCC 2998 = test system: HCC 2998
HCT-116 = test system: HCT-116
HCT-15 = test system: HCT-15
HL-60 = test system: HL-60
HOP-62 = test system: HOP-62
HOP-92 = test system: HOP-92
HT-29 = test system: HT-29
IGROV-1 = test system: IGROV-1
K562 = test system: K562
KM12 = test system: KM12
LOX IMVI = test system: LOX IMVI
M14 = test system: M14
MCF7 = test system: MCF7
MDA-MB-231 = test system: MDA-MB-231
MDA-MB-435 = test system: MDA-MB-435
MDA-N = test system: MDA-N
MOLT-4 = test system: MOLT-4
NCI-H226 = test system: NCI-H226
NCI-H23 = test system: NCI-H23
NCI-H460 = test system: NCI-H460
NCI-H522 = test system: NCI-H522
NCI/ADR-RES = test system: NCI/ADR-RES
OVCAR-3 = test system: OVCAR-3
OVCAR-4 = test system: OVCAR-4
OVCAR-5 = test system: OVCAR-5
OVCAR-8 = test system: OVCAR-8
PC-3 = test system: PC-3
RPMI-8226 = test system: RPMI-8226
RXF 393 = test system: RXF 393
SF-268 = test system: SF-268
SF-295 = test system: SF-295
SK-MEL-28 = test system: SK-MEL-28
SK-MEL-2 = test system: SK-MEL-2
SK-MEL-5 = test system: SK-MEL-5
SK-OV-3 = test system: SK-OV-3
SN12C = test system: SN12C
SNB-19 = test system: SNB-19
SNB-75 = test system: SNB-75
SR = test system: SR
SW-620 = test system: SW-620
T47D = test system: T47D
TK-10 = test system: TK-10
U-251 = test system: U-251
UACC-257 = test system: UACC-257
UACC-62 = test system: UACC-62
UO-31 = test system: UO-31
Hs-578T = test system: Hs-578T
Malme-3M = test system: Malme-3M
SF-539 = test system: SF-539

In the case of `CN1C(=O)[C@@]2(C=CC3(CC2)OCCO3)c2ccccc21`, the GI50 (786-0) was > 50 µM (inactive), the GI50 (A498) was > 50 µM (inactive) and the GI50 (A549) was > 50 µM (inactive). For the same molecule, the GI50 (ACHN) was 49.5 µM (inactive), the GI50 (BT-549) was > 50 µM (inactive) and the GI50 (CAKI-1) was > 50 µM (inactive). For the same molecule, the GI50 (CCRF-CEM) was > 50 µM (inactive), the GI50 (COLO 205) was > 50 µM (inactive) and the GI50 (DU-145) was > 50 µM (inactive). The GI50 (EKVX) was 49.2 µM (inactive), the GI50 (HCC 2998) was > 50 µM (inactive) and the GI50 (HCT-116) was > 50 µM (inactive). For the same molecule, the GI50 (HCT-15) was > 48.2 µM, the GI50 (HL-60) was 35.7 µM (inactive) and the GI50 (HOP-62) was > 32.1 µM (inactive). For the same molecule, the GI50 (HOP-92) was > 50 µM (inactive), the GI50 (HT-29) was > 50 µM (inactive) and the GI50 (IGROV-1) was 0.48 µM (active). The GI50 (K562) was > 50 µM (inactive), the GI50 (KM12) was > 37.5 µM (inactive) and the GI50 (LOX IMVI) was > 50 µM (inactive). For the same molecule, the GI50 (M14) was > 50 µM (inactive), the GI50 (MCF7) was 48.5 µM (inactive) and the GI50 (MDA-MB-231) was > 50 µM (inactive). The GI50 (MDA-MB-435) was > 45 µM (inactive), the GI50 (MDA-N) was > 50 µM (inactive) and the GI50 (MOLT-4) was > 46.3 µM (inactive). The GI50 (NCI-H226) was > 50 µM (inactive), the GI50 (NCI-H23) was 21.8 µM (inactive) and the GI50 (NCI-H460) was > 50 µM (inactive). The GI50 (NCI-H522) was 8.53 µM (inactive), the GI50 (NCI/ADR-RES) was > 50 µM (inactive) and the GI50 (OVCAR-3) was > 50 µM (inactive). For the same molecule, the GI50 (OVCAR-4) was > 50 µM (inactive), the GI50 (OVCAR-5) was > 50 µM (inactive) and the GI50 (OVCAR-8) was > 50 µM (inactive). The GI50 (PC-3) was > 45.4 µM (inactive), the GI50 (RPMI-8226) was > 50 µM (inactive) and the GI50 (RXF 393) was > 50 µM (inactive). For the same molecule, the GI50 (SF-268) was 10.3 µM (inactive), the GI50 (SF-295) was > 50 µM (inactive) and the GI50 (SK-MEL-28) was > 50 µM (inactive). The GI50 (SK-MEL-2) was > 50 µM (inactive), the GI50 (SK-MEL-5) was > 50 µM (inactive) and the GI50 (SK-OV-3) was > 50 µM (inactive). The GI50 (SN12C) was > 50 µM (inactive), the GI50 (SNB-19) was > 50 µM (inactive) and the GI50 (SNB-75) was > 25.9 µM (inactive). The GI50 (SR) was > 50 µM (inactive), the GI50 (SW-620) was > 50 µM (inactive) and the GI50 (T47D) was 35 µM (inactive). For the same molecule, the GI50 (TK-10) was > 50 µM (inactive), the GI50 (U-251) was > 50 µM (inactive) and the GI50 (UACC-257) was > 50 µM (inactive). For the same molecule, the GI50 (UACC-62) was > 50 µM (inactive) and the GI50 (UO-31) was > 50 µM (inactive).
`c1ccc2/c3[nH]/c(c2c1)=N\c1ccc(cc1)-c1nc2cc(ccc2o1)/N=c1/[nH]/c(c2ccccc12)=N/c1ccc2nc(oc2c1)-c1ccc(cc1)\N=3` was tested, and the GI50 (786-0) was > 100 µM (inactive), the GI50 (A498) was > 100 µM (inactive) and the GI50 (ACHN) was > 100 µM (inactive). The GI50 (BT-549) was > 100 µM (inactive), the GI50 (CAKI-1) was > 100 µM (inactive) and the GI50 (CCRF-CEM) was > 100 µM (inactive). The GI50 (COLO 205) was > 100 µM (inactive), the GI50 (DU-145) was > 100 µM (inactive) and the GI50 (EKVX) was > 100 µM (inactive). For the same molecule, the GI50 (HCC 2998) was 6.9 µM (inactive), the GI50 (HCT-116) was > 100 µM (inactive) and the GI50 (HCT-15) was > 100 µM. The GI50 (HL-60) was > 100 µM (inactive), the GI50 (HOP-62) was 78.3 µM (inactive) and the GI50 (HT-29) was 49.4 µM (inactive). For the same molecule, the GI50 (Hs-578T) was > 100 µM (inactive), the GI50 (IGROV-1) was > 100 µM (inactive) and the GI50 (K562) was > 100 µM (inactive). The GI50 (KM12) was 81.1 µM (inactive), the GI50 (LOX IMVI) was > 100 µM (inactive) and the GI50 (M14) was > 100 µM (inactive). The GI50 (MCF7) was > 100 µM (inactive), the GI50 (MDA-MB-435) was 42.4 µM (inactive) and the GI50 (MDA-N) was > 100 µM (inactive). For the same molecule, the GI50 (MOLT-4) was > 100 µM (inactive), the GI50 (NCI-H23) was > 100 µM (inactive) and the GI50 (NCI-H460) was 51.8 µM (inactive). For the same molecule, the GI50 (NCI-H522) was > 100 µM (inactive), the GI50 (NCI/ADR-RES) was 32.1 µM (inactive) and the GI50 (OVCAR-4) was > 100 µM (inactive). For the same molecule, the GI50 (OVCAR-5) was > 100 µM (inactive), the GI50 (PC-3) was > 100 µM (inactive) and the GI50 (RXF 393) was > 100 µM (inactive). For the same molecule, the GI50 (SF-268) was > 100 µM (inactive), the GI50 (SF-295) was > 100 µM (inactive) and the GI50 (SK-MEL-28) was > 100 µM (inactive). For the same molecule, the GI50 (SK-MEL-5) was > 100 µM (inactive), the GI50 (SN12C) was > 100 µM (inactive) and the GI50 (SNB-19) was > 100 µM (inactive). For the same molecule, the GI50 (SR) was > 100 µM (inactive), the GI50 (SW-620) was > 100 µM (inactive) and the GI50 (U-251) was > 100 µM (inactive). For the same molecule, the GI50 (UACC-257) was > 100 µM (inactive), the GI50 (UACC-62) was 95.3 µM (inactive) and the GI50 (UO-31) was > 100 µM (inactive).
With `O=S(=O)(Nc1nccs1)c1ccc(Nc2nc(-c3cccs3)nc3ccc(I)cc23)cc1` the GI50 (786-0) was 15.5 µM (inactive), the GI50 (A549) was 26.7 µM (inactive) and the GI50 (ACHN) was 29.6 µM (inactive). The GI50 (BT-549) was 11.9 µM (inactive), the GI50 (CAKI-1) was 9.91 µM (inactive) and the GI50 (CCRF-CEM) was 3.48 µM (inactive). The GI50 (COLO 205) was 6.34 µM (inactive), the GI50 (DU-145) was 9.48 µM (inactive) and the GI50 (EKVX) was 2.22 µM (inactive). The GI50 (HCC 2998) was 13.2 µM (inactive), the GI50 (HCT-116) was 8.97 µM (inactive) and the GI50 (HCT-15) was 32.1 µM. For the same molecule, the GI50 (HL-60) was 42.3 µM (inactive), the GI50 (HOP-62) was 16.3 µM (inactive) and the GI50 (HOP-92) was 9.35 µM (inactive). The GI50 (HT-29) was 18.7 µM (inactive), the GI50 (IGROV-1) was 17.4 µM (inactive) and the GI50 (K562) was 14.8 µM (inactive). For the same molecule, the GI50 (KM12) was 7.36 µM (inactive), the GI50 (LOX IMVI) was 14.6 µM (inactive) and the GI50 (M14) was 22.4 µM (inactive). The GI50 (MCF7) was 8.28 µM (inactive), the GI50 (MDA-MB-435) was 11.8 µM (inactive) and the GI50 (MDA-N) was 32.5 µM (inactive). For the same molecule, the GI50 (MOLT-4) was 14.2 µM (inactive), the GI50 (Malme-3M) was 14.3 µM (inactive) and the GI50 (NCI-H226) was 35.1 µM (inactive). For the same molecule, the GI50 (NCI-H23) was 37.4 µM (inactive), the GI50 (NCI-H460) was 9.73 µM (inactive) and the GI50 (NCI-H522) was 19.4 µM (inactive). For the same molecule, the GI50 (NCI/ADR-RES) was > 75.5 µM (inactive), the GI50 (OVCAR-3) was 14.2 µM (inactive) and the GI50 (OVCAR-4) was 26.9 µM (inactive). The GI50 (OVCAR-5) was 40.2 µM (inactive), the GI50 (OVCAR-8) was 22.2 µM (inactive) and the GI50 (PC-3) was 5.12 µM (inactive). For the same molecule, the GI50 (RPMI-8226) was 4.74 µM (inactive), the GI50 (RXF 393) was 36.5 µM (inactive) and the GI50 (SF-268) was 12.6 µM (inactive). The GI50 (SF-295) was 11.8 µM (inactive), the GI50 (SF-539) was 17.8 µM (inactive) and the GI50 (SK-MEL-28) was 21.4 µM (inactive). The GI50 (SK-MEL-2) was 38.5 µM (inactive), the GI50 (SK-MEL-5) was 8.18 µM (inactive) and the GI50 (SK-OV-3) was 24.7 µM (inactive). For the same molecule, the GI50 (SN12C) was 25.4 µM (inactive), the GI50 (SNB-19) was 14.5 µM (inactive) and the GI50 (SNB-75) was 36.4 µM (inactive). For the same molecule, the GI50 (SR) was 22.9 µM (inactive), the GI50 (SW-620) was 13 µM (inactive) and the GI50 (T47D) was 8.43 µM (inactive). The GI50 (TK-10) was 9.51 µM (inactive), the GI50 (U-251) was 11.5 µM (inactive) and the GI50 (UACC-257) was 4.49 µM (inactive). The GI50 (UACC-62) was 19.2 µM (inactive) and the GI50 (UO-31) was 17 µM (inactive).
